Experiments:
[1] = system: Canine Cardiac Atrioventricular Node Function; assay: Test of the Suppression of Canine Cardiac Atrioventricular Node Function; assay type: in vivo; conditions: anesthetized male beagle dogs, 0.1 mg/kg intravenously, 1 hour after administration (compound A), 30 minutes (Verapamil), vs control group; for change in AH intervals in the His bundle electrocardiograms during high-frequent stimulation by pacing: pacing the right atrium at intervals of 400 msec and 300 msec
Description: Male beagle dogs were employed in this test. Under halothane anesthesia, an electrode catheter was inserted from the left femoral artery and the front end thereof was placed in the non-coronary cusp of His bundle to thereby record the His bundle electrocardiogram. A pacing catheter was inserted via a sheath introducer placed in the right femoral vein and the front end thereof was fixed to the inner wall of the right atrium. Electrodes for recording body surface electrocardiogram were attached to the four limbs and thus the second-lead electrocardiogram was recorded. A drug was administered via the sheath introducer placed in the left femoral vein.
Verapamil, which was used as a comparative compound, was intravenously administered in a dose of 0.1 mg/kg. A group to which a vehicle was administered was referred to as the control group.
After the stabilization period following the surgical operation, AH intervals in the His bundle electrocardiograms were measured in the sinus rhythm and during pacing the right atrium at intervals of 400 msec and 300 msec. […] In the case of the comparative drug Verapamil, the AH intervals in the His bundle electrocardiogram as described above were measured before the administration and 30 minutes after the administration. The effect of a compound was expressed in the change in the AH intervals in the individual His bundle electrocardiograms in the sinus rhythm and during pacing the right atrium at intervals of 400 msec and 300 msec from the value before the administration of the drug and the data were compared with the data of the control group (Student's t-test) at a significant level of 5%. The term “AH interval in His bundle electrocardiogram” means the period of time wherein an electrical excitation generated at the atrium passes the atrioventricular node and arrives at His bundle.

[2] = system: Anesthetized Swine Ventricular Rate; assay: Test of Measurement of Anesthetized Swine Ventricular Rate; assay type: in vivo, pigs (Landrace/White F1)
Method: Male pigs (Landrace/White F1) were employed in this test. Under pentbarbital anesthesia, a thoracotomy was performed at the fourth right intercostal space and an electrode for electrical stimulation was attached to the right atrial surface thus exposed. Electrodes for recording body surface electrocardiogram were attached to the four limbs and thus the second-lead electrocardiogram was recorded. A catheter for drug administration was placed in the right femoral vein. Compound A was intravenously administered in a dose of 0.3 mg/kg. Atenolol, which was a β-blocker used as a comparative compound, was intravenously administered in a dose of 1 mg/kg. A group to which a vehicle was administered was referred to as the control group. A 50 Hz burst stimulation was applied to the right atrium via the electrode for electrical stimulation and the ventricular rate per minute was measured as R-waves in the body surface electrocardiogram. Thirty minutes after the administration of compound A or the comparative drug, a 50 Hz burst stimulation was applied again to the right atrium and then the R-waves per minute in the body surface electrocardiogram were measured.

Structure (SMILES) | change in AH intervals in the His bundle electrocardiograms during high-frequent stimulation by pacing [1] | change in AH interval in the His bundle electrocardiogram in the sinus rhythm [1] | change in ventricular rate (R waves per minute) during the 50 Hz burst stimulation ([2]; anesthetized male pigs, 0.3 mg/kg intravenously, 30 minutes after administration, 50 Hz burst stimulation of right atrium, vs control group) | efficacy relative to Atenolol in controlling the ventricular rate ([2]; anesthetized pigs, compound A 0.3 mg/kg vs Atenolol 1 mg/kg intravenously)
COc1ccc(CCN(C)CCCC(C#N)(c2ccc(OC)c(OC)c2)C(C)C)cc1OC (centres unmarked) [Verapamil] | significantly prolonged | significantly prolonged |  | 
COc1cc2c(cc1OC)CC(=O)N(CCCN(C)C[C@H]1Cc3cc(OC)c(OC)cc31)CC2 [Ivabradine] | no significant difference at a significant level of 5% was observed | do not suppress the atrioventricular node function in the sinus rhythm |  | 
COc1cc2c(cc1OC)CN(C(=O)[C@@H]1CCCN(CCNC(=O)c3ccc(F)cc3)C1)CC2 [compound A, (−)-N-{2-[(R)-3-(6,7-dimethoxy-1,2,3,4-tetrahydroisoquinoline-2-carbonyl)piperidino]ethyl}-4-fluorobenzamide monophosphate] | prolonged at a significant level of 1% | no effect | significantly decreases | stronger by thrice or more
